Test systems include 786-0 renal; HCT-116 colon; HOP-62 NSCLC; HOP-92 NSCLC; KM12 colon; NCI/ADR-RES ovarian; OVCAR-3 ovarian; SK-MEL-2 melanoma; SK-MEL-28 melanoma; T-47D breast.
Common to all, as to test: NCI anticancer screen, dose series, 48 h

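In this assay, cells in 96-well plates receive the compound at five concentrations for 48 hours. Endpoints are linearly interpolated between the surrounding concentrations. GI50 = concentration required for 50% inhibition of growth. TGI denotes the concentration required for complete inhibition of growth.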 *1 amine or outer side, *2 acyl side, *3 side chain or, on linkers, in order; H or OH if unused. Where a SMILES comes first, the peptide text is derived from it. Bridges are numbered along the chain shown (N, C = ends). Roman numbers before positions name the chains, in order. [ ]: non-standard residue; d: D form. Actinocin(9to1) = Cc1c2oc3c(C)ccc(C(=O)[*:1])c3nc-2c(C(=O)[*:2])c(N)c1=O; NMeV = CN[CH](C(=O)O)C(C)C; Sar = CNCC(=O)O

For the compound `CCOc1cc(C(=O)O)c2c(ccc3ccc(OC)c(OC)c32)c1OC`, the TGI in the assay with 786-0 renal, with HCT-116 colon, in the assay on HOP-62 NSCLC, in the assay on HOP-92 NSCLC, in the assay with KM12 colon and in the assay with NCI/ADR-RES ovarian was above 100 µM in each case. Moreover, the TGI in the assay on OVCAR-3 ovarian, with SK-MEL-2 melanoma, with SK-MEL-28 melanoma and with T-47D breast was above 100 µM each time.

`Cc1c(N)nc([C@H](CC(N)=O)NC[C@H](N)C(N)=O)nc1C(=O)N[C@H](C(=O)N[C@H](C)[C@@H](O)CC(=O)N[C@H](C(=O)NC(O[C@@H]1O[C@@H](C)[C@@H](N)[C@@H](O)[C@H]1O)C(O)c1nc(-c2nc(C(=O)NCCCCN)cs2)cs1)[C@@H](C)O)[C@@H](O[C@@H]1O[C@@H](CO)[C@@H](O)[C@H](O)[C@@H]1O[C@H]1O[C@H](CO)[C@@H](O)[C@H](OC(N)=O)[C@@H]1O)c1c[nH]cn1` (stereo not given in full): the TGI in the assay on 786-0 renal, with HCT-116 colon, in the assay with HOP-62 NSCLC, with HOP-92 NSCLC, with KM12 colon and in the assay with NCI/ADR-RES ovarian was above 50 µM each time. Besides, the TGI in the assay with OVCAR-3 ovarian, in the assay with SK-MEL-2 melanoma, in the assay with SK-MEL-28 melanoma and with T-47D breast was above 50 µM throughout.

As to `Cc1c2oc3c(C)ccc(C(=O)OC(C)C4NC(=O)C(C(C)C)N(C)C(=O)CN(C)C(=O)C5CCCN5C(=O)C(C(C)C)NC4=O)c3nc-2c(C(=O)OC(C)C2NC(=O)C(C(C)C)N(C)C(=O)CN(C)C(=O)C3CCCN3C(=O)C(C(C)C)NC2=O)c(N)c1=O` (stereo not given) (I: cyclo([Sar][NMeV]TVP) / II: cyclo([Sar][NMeV]TVP); linker I:3-II:3 via Actinocin(9to1); configuration not given here), the GI50 with 786-0 renal was below 0.01 µM; with HCT-116 colon, below 0.01 µM; in the assay with HOP-62 NSCLC it was below 0.01 µM; with HOP-92 NSCLC, below 0.01 µM; with KM12 colon, below 0.01 µM; in the assay on NCI/ADR-RES ovarian, 0.541 µM. The GI50 in the assay with OVCAR-3 ovarian, in the assay with SK-MEL-2 melanoma, in the assay on SK-MEL-28 melanoma and in the assay with T-47D breast was below 0.01 µM in each case. The TGI with 786-0 renal is above 100 µM; in the assay on HCT-116 colon it was above 100 µM; with HOP-62 NSCLC, 0.0883 µM; in the assay on HOP-92 NSCLC, 0.0989 µM; in the assay on KM12 colon, 0.793 µM; with NCI/ADR-RES ovarian it was above 100 µM. The TGI with OVCAR-3 ovarian was 0.032 µM; with SK-MEL-2 melanoma, below 0.0152 µM; in the assay with SK-MEL-28 melanoma it was 0.0307 µM; in the assay with T-47D breast, above 100 µM.

`c1ccc2cc(Cn3cc[n+](Cc4ccc5ccccc5c4)c3)ccc2c1`: the GI50 was 4.4 µM in the assay on 786-0 renal; 1.97 µM in the assay with HCT-116 colon; 3.26 µM with HOP-62 NSCLC; 0.16 µM in the assay on HOP-92 NSCLC; 1.15 µM in the assay with KM12 colon; above 100 µM with NCI/ADR-RES ovarian. The GI50 in the assay on OVCAR-3 ovarian was 0.675 µM; in the assay on SK-MEL-2 melanoma, 1.37 µM; with SK-MEL-28 melanoma, 1.2 µM; in the assay with T-47D breast, 0.385 µM. Further, the TGI with 786-0 renal is 19 µM; in the assay with HCT-116 colon, 12.3 µM; in the assay on HOP-62 NSCLC it was 17 µM; with HOP-92 NSCLC, 1.39 µM; with KM12 colon it was 2.62 µM; with NCI/ADR-RES ovarian it was above 100 µM. Further, the TGI with OVCAR-3 ovarian stood at 2.18 µM; with SK-MEL-2 melanoma it was 4.35 µM; with SK-MEL-28 melanoma, 3.36 µM; in the assay with T-47D breast it was 5.24 µM.

Consider `COc1ccc(OC)c(NC(=O)c2cccc(NC3=C(Cl)C(=O)N(Cc4ccccc4)C3=O)c2)c1`, for which the GI50 was above 96.2 µM in the assay with 786-0 renal; above 86.2 µM in the assay on HCT-116 colon; above 83.5 µM with HOP-62 NSCLC; above 100 µM in the assay with HOP-92 NSCLC; above 100 µM with KM12 colon; above 67.8 µM with NCI/ADR-RES ovarian. Besides, the GI50 with OVCAR-3 ovarian, with SK-MEL-2 melanoma, with SK-MEL-28 melanoma and in the assay with T-47D breast was above 100 µM throughout. Further, the TGI in the assay with 786-0 renal, in the assay with HCT-116 colon, with HOP-62 NSCLC, in the assay with HOP-92 NSCLC, with KM12 colon and in the assay with NCI/ADR-RES ovarian was above 100 µM in each case. Besides, the TGI with OVCAR-3 ovarian, in the assay with SK-MEL-2 melanoma, in the assay on SK-MEL-28 melanoma and in the assay with T-47D breast was above 100 µM throughout.

Turning to `CC(CN(C)C)S(=O)(=O)c1ccc(-c2cnc(N)c(C(=O)Nc3ccccc3)n2)cc1` (stereo not given), the GI50 is 2.37 µM in the assay on 786-0 renal; 4.88 µM in the assay with HCT-116 colon; 8.16 µM with HOP-62 NSCLC; 6.86 µM in the assay on HOP-92 NSCLC; 11.1 µM with KM12 colon; 5.2 µM in the assay on NCI/ADR-RES ovarian. Also, the GI50 in the assay with OVCAR-3 ovarian is 5.83 µM; in the assay with SK-MEL-2 melanoma, 4.31 µM; in the assay with SK-MEL-28 melanoma, 7.22 µM; in the assay with T-47D breast, 13.1 µM. In addition, the TGI in the assay with 786-0 renal is 15.2 µM; with HCT-116 colon it was 21.2 µM; with HOP-62 NSCLC it was 36.2 µM; with HOP-92 NSCLC, 34.7 µM; with KM12 colon, 28.7 µM; with NCI/ADR-RES ovarian, above 100 µM. Further, the TGI in the assay on OVCAR-3 ovarian was found to be 32.9 µM; with SK-MEL-2 melanoma, 17.6 µM; with SK-MEL-28 melanoma it was 21.4 µM; in the assay on T-47D breast, 59.3 µM.

`CCN(CC)CCC(=O)OC1C(C)=CC(C)C(=O)CC(C(C)CC2CCC(O)C(OC)C2)OC(=O)C2CCCCN2C(=O)C(=O)[C@@]2(O)OC(CCC2C)CC(OC)\C(C)=C/C=C/C=C/C(C)CC(C)C(=O)C1OC` (stereo not given in full): the TGI is 22.4 µM in the assay with 786-0 renal; 20.1 µM in the assay with HCT-116 colon; 21.1 µM in the assay on HOP-62 NSCLC; 21.9 µM in the assay on HOP-92 NSCLC; 21.2 µM in the assay with KM12 colon; 25.8 µM with NCI/ADR-RES ovarian. The TGI with OVCAR-3 ovarian stood at 23.5 µM; in the assay on SK-MEL-2 melanoma it was 18.9 µM; in the assay on SK-MEL-28 melanoma it was 19.3 µM; in the assay with T-47D breast, 14.6 µM.

For the compound `O=P(O)(O)OCC1OC(n2cnc3c(NCc4ccco4)ncnc32)C(O)C1O` (stereo not given), the GI50 is 3.35 µM in the assay on 786-0 renal; 0.41 µM in the assay on HCT-116 colon; 2.24 µM with HOP-62 NSCLC; 1.36 µM in the assay with HOP-92 NSCLC; 4.44 µM with KM12 colon; 1.62 µM with NCI/ADR-RES ovarian. For the same compound, the GI50 in the assay on OVCAR-3 ovarian is 0.422 µM; in the assay on SK-MEL-2 melanoma, 11.1 µM; in the assay on SK-MEL-28 melanoma it was 16.2 µM; with T-47D breast it was 3.24 µM. In addition, the TGI in the assay on 786-0 renal is above 49.9 µM; with HCT-116 colon it was 1.85 µM; in the assay on HOP-62 NSCLC, 19.4 µM; in the assay with HOP-92 NSCLC, 13.4 µM; in the assay on KM12 colon it was above 42.6 µM; with NCI/ADR-RES ovarian, above 53.7 µM. The TGI is 1.65 µM in the assay with OVCAR-3 ovarian, above 50.7 µM with SK-MEL-2 melanoma, above 100 µM in the assay on SK-MEL-28 melanoma and 17.3 µM in the assay on T-47D breast.
